Source: US9133099B2, “Compounds and their salts specific to the PPAR receptors and the EGF receptors and their use in the medical field” (Nogra Pharma Limited, priority 2005, dated 2015)

What was measured:
[1] = target: T1, PPARγ (Homo sapiens, UniProt P37231); experiment: PPARγ transcriptional activity, renilla luciferase/PPRE reporter gene in transfected HT-29 cells; type: cell-based; details: 24 hours
T1 construct: transient transfections of epithelial cells with the renilla luciferase and PPRE plamids; endogenous in cells; host or cells: HT-29 human colon carcinoma cells
T1 sequence (P37231 1-505): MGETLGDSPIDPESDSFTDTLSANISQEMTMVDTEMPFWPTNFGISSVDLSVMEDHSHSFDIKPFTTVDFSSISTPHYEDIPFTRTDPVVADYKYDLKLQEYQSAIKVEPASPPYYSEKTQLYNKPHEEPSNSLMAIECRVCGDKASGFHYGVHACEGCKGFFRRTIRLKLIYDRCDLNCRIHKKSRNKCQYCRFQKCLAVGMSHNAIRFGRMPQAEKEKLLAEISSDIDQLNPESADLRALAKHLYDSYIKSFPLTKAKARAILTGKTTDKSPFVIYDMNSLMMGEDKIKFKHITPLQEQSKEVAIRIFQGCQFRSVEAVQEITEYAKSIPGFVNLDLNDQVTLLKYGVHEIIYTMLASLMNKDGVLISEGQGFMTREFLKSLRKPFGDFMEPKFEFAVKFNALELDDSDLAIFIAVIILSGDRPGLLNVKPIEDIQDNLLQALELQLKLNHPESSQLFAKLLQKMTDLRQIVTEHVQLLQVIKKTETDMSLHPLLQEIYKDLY
Method: Activation of PPARγ results in a cascade of reactions leading to a binding to specific DNA sequence elements termed peroxisome proliferator response elements (PPRE) (7-9).
We investigated PPARγ transcriptional activity by transient transfections of epithelial cells with the renilla luciferase and PPRE plamids. To evaluate if the new molecules have more efficacy than 5-ASA to stimulate PPARγ activation, we tested these molecules at a concentration of 1 mM. […] Cells were stimulated with the different molecules during 24 hours.
FIG. 2 represents all the results obtained for each molecule assessed in 2 or 3 experiments done in triplicate. Reproducibility between the different experiments is good and similar to data described in the literature.

[2] = test system: DLD-1 cells; experiment: Colon cancer cell growth, BrdU incorporation, DLD-1 cells; type: cell-based, human; details: for effect on cell growth at high doses (in words) / inhibition at 10000 µM: 10 mM; for effect on cell growth at high doses (in words): differences among groups not statistically significant; for inhibition at 500 µM / inhibition at 1000 µM / inhibition at 2500 µM / inhibition at 5000 µM / inhibition at 10000 µM: Homo sapiens, BrdU; for inhibition at 500 µM: 0.5 mM; for inhibition at 500 µM / inhibition at 1000 µM / inhibition at 2500 µM / inhibition at 5000 µM / inhibition at 10000 µM / effect on cell growth (in words): DLD-1 cells, 48 hours; for inhibition at 1000 µM: 1 mM; for inhibition at 2500 µM: 2.5 mM; for inhibition at 5000 µM: 5 mM; for effect on cell growth (in words): 0.5-10 mM
Method: (§1) The following substances (i e 20, 34, 35, 39 and 40) were tested for their ability to modulate colon cancer cell growth. For this purpose, three human colon carcinoma cell lines (i.e. HT-29, HT-115 and DLD-1) were used. These cell types were selected on the basis of the cyclooxigenase-2 (COX-2) expression. Indeed. HT-115 cells express a biologically active COX-2, HT-29 cells express a non-functional COX-2 isoform, and DLD-1 are COX-2-deficient cells.
HT-29 and DLD-1 cells were cultured in McCoy and RPMI1640 media respectively, supplemented with 10% fetal bovine serum (FBS), 1% penicillin/streptomycin (P/S) and […] gentamycin. HT-115 were cultured in DMEM medium supplemented with 15% FBS and 1% P/S. Cells were maintained in a humidified Incubator at 37° C., in the presence of 5% CO2.
For cell growth assays, single-cell suspensions were plated at 2×10^3 cells/well (4×10^3 cells/well for HT115) in 96-well culture dishes in medium containing 0.5% FBS and allowed to adhere. The non-adherent cells were then removed, and fresh medium containing 0.5% FBS was added into each well. Cells were cultured in the presence or absence of the specified substances. Each substance was dissolved as a 25 mM stock solution in culture medium containing 0.5% FBS, and the pH of each stock solution was adjusted to 7.4, if necessary, with NaOH. Substances were used at a final concentration ranging from 0.5 to 10 mM.
(§2) Cell proliferation was determined by measuring the incorporation of 5-bromo-2′-deoxyuridine (BrdU) into DNA using a commercially available cell proliferation kit (Roche Diagnostics, Monza, Italy). BrdU was added to the cell cultures during the last 6 hours of incubation, and the level of BrdU-positive cells was assessed after 48 h culture by enzyme-linked immunosorbent assay (ELISA). Optical density (OD) was determined at 450 nm using an ELISA reader. Experiments were performed in triplicate and the results are reported as the mean t standard deviation (SD).
Cells were cultured in the presence or absence of the compounds, and cell growth was then assessed by the colorimetric (BrdU) assay after 48 hours culture.

[3] = test system: HT-29 cells; experiment: Colon cancer cell growth, BrdU incorporation, HT-29 cells; type: cell-based, human; details: 0.5-10 mM, 48 hours
Method: (§3) FIG. 3 and FIG. 4: Effect of the specified substances on the proliferation of human colon carcinoma cell lines (i.e. HT29, HT 115 and DLDI). Cells were treated with increasing concentrations of substances (0.5-10 mM)) for 48 hours and the proliferation was determined by using a colorimetric assay for the measurement of BrdU incorporation. Optical density (OD) was determined at 450 nm using an ELISA reader.
as §1, with “cells. […]” for “cells.”
as §2, with “Experiments were performed in triplicate and the results are reported as the mean t standard deviation (SD).” left out

[4] = test system: HT-115 cells; experiment: Colon cancer cell growth, BrdU incorporation, HT-115 cells; type: cell-based, human; details: 0.5-10 mM, 48 hours
Method: as §3
as §1, with “cells. […]” for “cells.”
as §2, with “Experiments were performed in triplicate and the results are reported as the mean t standard deviation (SD).” left out

In the case of `CCOC(Cc1ccc(N)cc1)C(=O)O` (racemic) [Compound 39, (±)-2-ethoxy 3-(4′-aminophenyl)-propionic acid], the “increase of the reporter gene activity (PPARγ activity)” value (from here on “increase of the reporter gene activity”) ([1]; 1 mM) is reported as 2.73±0.31 fold, the “effect on cell growth at high doses (in words)” value [2] is reported as “slightly reduced the cell growth” and the inhibition at 500 µM [2] is reported as 1.6%. For the same compound, the inhibition at 1000 µM [2] was 3.3%, the inhibition at 2500 µM [2] was 8.2% and the inhibition at 5000 µM [2] was 11.5%. The inhibition at 10000 µM [2] was 12.8%.

For `CCOC(Cc1cccc(N)c1)C(=O)O` (racemic) [Compound 40, (±)-2-ethoxy-3-(3′-aminophenyl)-propanoic acid], the “increase of the reporter gene activity” value ([1]; 1 mM) was 3.4±0.97 fold, the “effect on cell growth (in words)” value [2] was “no inhibition in cell growth” and the inhibition at 500 µM [2] was 2%. It also gave an inhibition at 1000 µM [2] of 0%, an inhibition at 2500 µM [2] of 0% and an inhibition at 5000 µM [2] of 0%. It also gave an inhibition at 10000 µM [2] of 2.7%.

In the case of `Nc1cccc(CC(O)C(=O)O)c1` (racemic) [Compound 20, (±)-2-hydroxy-3-(3′-aminophenyl)-propanoic acid], the “effect on cell growth (in words)” value [2] is reported as “marked anti-proliferative effect in a dose-dependent fashion”, the inhibition at 500 µM [2] is reported as 4.3% and the inhibition at 1000 µM [2] is reported as 12.8%. The inhibition at 2500 µM [2] was 16.2%, the inhibition at 5000 µM [2] was 25.6% and the inhibition at 10000 µM [2] was 47%. The “significance of cell growth inhibition (in words)” value ([2]; final concentration of 5 or 10 mM, cell line not specified) was “significantly inhibit cell growth”, the “effect on cell growth (in words)” value [3] was “marked anti-proliferative effect in a dose-dependent fashion” and the “effect on cell growth (in words)” value [4] was “marked anti-proliferative effect in a dose-dependent fashion”.

For `Nc1ccc(O)c(C(=O)O)c1` [Compound 5-ASA, 5-amino salicylic acid, reference compound], the “increase of the reporter gene activity” value ([1]; 30 mM, positive control) was 2.8±0.7 fold.

`COC(Cc1cccc(N)c1)C(=O)O` (racemic) [Compound 35, (±)-2-methoxy-3-(3′-aminophenyl)-propionic acid] was tested, and the “increase of the reporter gene activity” value ([1]; 1 mM) was 2.64±0.40 fold, the “effect on cell growth (in words)” value [2] was “no inhibition in cell growth” and the inhibition at 500 µM [2] was 0%. For the same compound, the inhibition at 1000 µM [2] was 3.2%, the inhibition at 2500 µM [2] was 1.6% and the inhibition at 5000 µM [2] was 6.4%. It also gave an inhibition at 10000 µM [2] of 4.8%.

For `COC(Cc1ccc(N)cc1)C(=O)O` (racemic) [Compound 34, (±)-2-methoxy-3-(4′-aminophenyl)-propionic acid], the “increase of the reporter gene activity” value ([1]; 1 mM) was 4.8±0.71 fold, the “effect on cell growth at high doses (in words)” value [2] was “slightly reduced the cell growth” and the inhibition at 500 µM [2] was 0%. The inhibition at 1000 µM [2] was 3.6%, the inhibition at 2500 µM [2] was 1.8% and the inhibition at 5000 µM [2] was 3.6%. The inhibition at 10000 µM [2] was 15.1%.
